Earlier results as cited in patent publication US20020002154A1, “METHOD AND COMPOSITION FOR TREATMENT OF INFLAMMATORY CONDITIONS” (priority 1998, published 2002).

Tested on: acute phase of Crohn's Disease (CD)

With `CCCC1O[C@@H]2C[C@H]3[C@@H]4CCC5=CC(=O)C=C[C@]5(C)[C@H]4[C@@H](O)C[C@]3(C)[C@]2(C(=O)CO)O1` (stereo partly shown) [budesonide] as the molecule, how does the “side-effects compared to prednisone” value read?
Its value is “fewer side-effects”.
